Reference: patent US8183248B2, “Substituted pyrrolo[2,3-d]pyrimidines and compositions as protein kinase inhibitors” (IRM LLC, priority 2005, dated 2012)

How the values were obtained:
[1] = target: T1, wild type Bcr-abl (Ba/F3 cells) (Homo sapiens, UniProt P00519); assay: Proliferation of Ba/F3 cells expressing wild type Bcr-abl; type: cell-based
T1 construct: expressed in transfected cells; host or cells: Ba/F3 (murine pro-B cells); the other entry of the earlier key: BCR (P11274, Breakpoint cluster region protein)
Description: (§1) 32D-p210 cells are plated into 96 well TC plates at a density of 15,000 cells per well. 50 μL of two fold serial dilutions of the test compound (Cmax is 40 μM) are added to each well (STI571 is included as a positive control). After incubating the cells for 48 hours at 37° C., 5% CO2, 15 μL of MTT (Promega) is added to each well and the cells are incubated for an additional 5 hours. The optical density at 570 nm is quantified spectrophotometrically and IC50 values, the concentration of compound required for 50% inhibition, determined from a dose response curve.
(§2) Compounds of the invention are tested for their antiproliferative effect on Ba/F3 cells expressing either wild type or the mutant forms of BCR-Abl (G250E, E255V, T315I, F317L, M351T) that confers resistance or diminished sensitivity to STI571. The antiproliferative effect of these compounds on the mutant-BCR-Abl expressing cells and on the non transformed cells were tested at 10, 3.3, 1.1 and 0.37 μM as described above (in media lacking IL3). The IC50 values of the compounds lacking toxicity on the untransformed cells were determined from the dose response curves obtained as describe above.

[2] = target: T2, G250E Bcr-abl (Ba/F3 cells) (Homo sapiens, UniProt P00519, G250E); assay: Proliferation of Ba/F3 cells expressing G250E Bcr-abl; type: cell-based
T2 construct: expressed in transfected cells; host or cells: Ba/F3 (murine pro-B cells); the other entry of the earlier key: BCR (P11274, Breakpoint cluster region protein)
Description: as §1, §2

[3] = target: T3, E255V Bcr-abl (Ba/F3 cells) (Homo sapiens, UniProt P00519, E255V); assay: Proliferation of Ba/F3 cells expressing E255V Bcr-abl; type: cell-based
T3 construct: expressed in transfected cells; host or cells: Ba/F3 (murine pro-B cells); the other entry of the earlier key: BCR (P11274, Breakpoint cluster region protein)
Description: as §1, §2

[4] = target: T4, T315I Bcr-abl (Ba/F3 cells) (Homo sapiens, UniProt P00519, T315I); assay: Proliferation of Ba/F3 cells expressing T315I Bcr-abl; type: cell-based
T4 construct: expressed in transfected cells; host or cells: Ba/F3 (murine pro-B cells); the other entry of the earlier key: BCR (P11274, Breakpoint cluster region protein)
Description: as §1, §2

[5] = target: T5, F317L Bcr-abl (Ba/F3 cells) (Homo sapiens, UniProt P00519, F317L); assay: Proliferation of Ba/F3 cells expressing F317L Bcr-abl; type: cell-based
T5 construct: expressed in transfected cells; host or cells: Ba/F3 (murine pro-B cells); the other entry of the earlier key: BCR (P11274, Breakpoint cluster region protein)
Description: as §1, §2

FGFR3 = target: T6, FGFR3 (Homo sapiens, UniProt P22607); assay: FGFR3 (Enzymatic Assay); type: biochemical
T6 construct: if the value comes from the Ba/F3-TEL-FGFR3 test; If it comes from the purified enzyme, only the vendor's tag
Description: Kinase activity assay with purified FGFR3 (Upstate) is carried out in a final volume of 10 μL containing 0.25 μg/mL of enzyme in kinase buffer (30 mM Tris-HCl pH7.5, 15 mM MgCl2, 4.5 mM MnCl2, 15 μM Na3VO4 and 50 μg/mL BSA), and substrates (5 μg/mL biotin-poly-EY(Glu, Tyr) (CIS-US, Inc.) and 3 μM ATP). Two solutions are made: the first solution of 5 μl contains the FGFR3 enzyme in kinase buffer was first dispensed into 384-format ProxiPlate® (Perkin-Elmer) followed by adding […] of compounds dissolved in DMSO, then […] of second solution contains the substrate (poly-EY) and ATP in kinase buffer was added to each wells. The reactions are incubated at room temperature for one hour, stopped by adding 10 μL of HTRF detection mixture, which contains 30 mM Tris-HCl pH7.5, 0.5 M KF, 50 mM ETDA, 0.2 mg/mL BSA, 15 μg/mL streptavidin-XL665 (CIS-US, Inc.) and 150 ng/mL cryptate conjugated anti-phosphotyrosine antibody (CIS-US, Inc.). After one hour of room temperature incubation to allow for streptavidin-biotin interaction, time resolved florescent signals are read on Analyst GT (Molecular Devices Corp.). IC50 values are calculated by […] analysis of the percentage inhibition of each compound at 12 concentrations (1:3 dilution from 50 μM to 0.28 nM).

PDGFR-β = target: T7, PDGFR-β (Homo sapiens, UniProt P09619); assay: PDGFRβ (Cellular Assay), Ba/F3-Tel-PDGFRβ proliferation; type: cell-based; settings: read-out: IC50 for PDGFR-β
T7 construct: fused on or other part: P41212 (Transcription factor ETV6)
T7 sequence (P09619 600-962 limits assumed, change not shown): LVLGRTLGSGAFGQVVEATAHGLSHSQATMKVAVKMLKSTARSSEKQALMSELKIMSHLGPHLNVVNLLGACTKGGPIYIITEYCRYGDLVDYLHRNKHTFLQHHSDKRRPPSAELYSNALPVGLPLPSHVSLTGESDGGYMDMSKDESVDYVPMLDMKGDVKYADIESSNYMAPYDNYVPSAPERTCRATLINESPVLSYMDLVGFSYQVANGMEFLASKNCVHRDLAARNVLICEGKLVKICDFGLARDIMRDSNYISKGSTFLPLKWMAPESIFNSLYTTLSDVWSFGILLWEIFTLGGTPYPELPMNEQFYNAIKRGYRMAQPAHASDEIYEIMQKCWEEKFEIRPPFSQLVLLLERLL

Abl(m) = target: T8, Abl(m) (Mus musculus, UniProt P00520); assay: Upstate KinaseProfiler radio-enzymatic filter binding assay; type: biochemical; settings: read-out: percentage inhibition Abl(m)
T8 construct: purchased Upstate
T8 sequence (P00520 27-1123 limits assumed): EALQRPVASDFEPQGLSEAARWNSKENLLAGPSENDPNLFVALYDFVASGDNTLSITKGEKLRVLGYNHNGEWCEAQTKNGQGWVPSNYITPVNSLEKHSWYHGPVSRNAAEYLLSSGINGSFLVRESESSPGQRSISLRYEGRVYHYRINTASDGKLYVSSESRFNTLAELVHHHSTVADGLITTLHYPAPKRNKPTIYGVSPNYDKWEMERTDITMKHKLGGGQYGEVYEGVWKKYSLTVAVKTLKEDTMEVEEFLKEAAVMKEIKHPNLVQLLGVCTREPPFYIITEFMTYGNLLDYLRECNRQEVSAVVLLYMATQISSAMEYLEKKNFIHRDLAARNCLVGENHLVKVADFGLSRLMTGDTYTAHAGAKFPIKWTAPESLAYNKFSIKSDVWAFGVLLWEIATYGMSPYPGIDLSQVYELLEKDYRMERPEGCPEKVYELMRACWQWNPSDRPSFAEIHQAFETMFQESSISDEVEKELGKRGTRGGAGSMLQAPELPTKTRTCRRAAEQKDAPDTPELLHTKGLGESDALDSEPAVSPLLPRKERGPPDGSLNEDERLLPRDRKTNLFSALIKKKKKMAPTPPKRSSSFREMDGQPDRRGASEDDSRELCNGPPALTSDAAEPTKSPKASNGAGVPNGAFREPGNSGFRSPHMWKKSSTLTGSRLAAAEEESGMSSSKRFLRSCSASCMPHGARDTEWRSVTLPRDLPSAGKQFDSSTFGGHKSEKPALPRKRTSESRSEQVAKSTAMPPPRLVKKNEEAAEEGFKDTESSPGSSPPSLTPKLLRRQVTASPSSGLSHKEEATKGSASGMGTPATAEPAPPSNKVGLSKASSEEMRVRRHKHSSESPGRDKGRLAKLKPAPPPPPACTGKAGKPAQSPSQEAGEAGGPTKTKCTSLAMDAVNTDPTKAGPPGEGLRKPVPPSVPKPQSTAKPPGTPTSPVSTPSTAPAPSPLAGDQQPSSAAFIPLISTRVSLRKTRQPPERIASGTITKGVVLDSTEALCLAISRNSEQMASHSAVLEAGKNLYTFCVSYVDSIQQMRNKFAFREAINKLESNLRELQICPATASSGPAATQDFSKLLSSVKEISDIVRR
Description: (§3) Compounds of the invention are assessed for their ability to inhibit individual members of the kinase panel. The compounds are tested in duplicates at a final concentration of 10 μM following this generic protocol. Note that the kinase buffer composition and the substrates vary for the different kinases included in the “Upstate KinaseProfiler™” panel. Kinase buffer (2.5 μL, 10×—containing MnCl2 when required), active kinase (0.001-0.01 Units; 2.5 μL), specific or Poly(Glu4-Tyr) peptide (5-500 μM or 0.01 mg/ml) in kinase buffer and kinase buffer (50 μM; 5 μL) are mixed in an eppendorf on ice. A Mg/ATP mix (10 μL; 67.5 (or 33.75) mM MgCl2, 450 (or 225) μM ATP and 1 μCi/μl [γ-^32P]-ATP (3000 Ci/mmol)) is added and the reaction is incubated at about 30° C. for about 10 minutes. The reaction mixture is spotted (20 μL) onto a 2 cm×2 cm P81 (phosphocellulose, for positively charged peptide substrates) or Whatman No. 1 (for Poly (Glu4-Tyr) peptide substrate) paper square. The assay squares are washed 4 times, for 5 minutes each, with 0.75% phosphoric acid and washed once with acetone for 5 minutes. The assay squares are transferred to a scintillation vial, 5 ml scintillation cocktail are added and ^32P incorporation (cpm) to the peptide substrate is quantified with a Beckman scintillation counter. Percentage inhibition is calculated for each reaction.

Fes(h) = target: T9, Fes(h) (Homo sapiens, UniProt P07332); assay: as above; type: biochemical; settings: read-out: percentage inhibition Fes(h)
T9 construct: purchased Upstate
T9 sequence (P07332 whole entry): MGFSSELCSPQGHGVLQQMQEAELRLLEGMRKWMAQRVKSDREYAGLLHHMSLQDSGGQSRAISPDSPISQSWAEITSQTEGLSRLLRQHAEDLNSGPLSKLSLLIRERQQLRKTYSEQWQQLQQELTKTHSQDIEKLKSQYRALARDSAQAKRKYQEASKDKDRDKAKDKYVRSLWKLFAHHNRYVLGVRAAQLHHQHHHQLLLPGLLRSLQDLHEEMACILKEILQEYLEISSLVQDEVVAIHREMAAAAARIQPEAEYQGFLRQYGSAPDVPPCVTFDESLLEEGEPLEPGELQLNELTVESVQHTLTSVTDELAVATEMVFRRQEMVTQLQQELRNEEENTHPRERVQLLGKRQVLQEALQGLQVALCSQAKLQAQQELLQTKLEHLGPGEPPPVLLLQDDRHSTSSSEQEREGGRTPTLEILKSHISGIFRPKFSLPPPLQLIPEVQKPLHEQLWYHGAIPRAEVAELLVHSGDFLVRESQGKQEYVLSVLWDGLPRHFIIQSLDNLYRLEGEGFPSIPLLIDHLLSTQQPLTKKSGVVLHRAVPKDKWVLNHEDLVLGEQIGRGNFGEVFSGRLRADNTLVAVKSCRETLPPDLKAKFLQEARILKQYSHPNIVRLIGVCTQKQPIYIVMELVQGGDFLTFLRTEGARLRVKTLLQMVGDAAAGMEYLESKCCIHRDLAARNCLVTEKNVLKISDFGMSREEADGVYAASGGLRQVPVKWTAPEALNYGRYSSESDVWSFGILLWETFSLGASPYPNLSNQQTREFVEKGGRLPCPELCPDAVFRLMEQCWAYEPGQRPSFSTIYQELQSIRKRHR
Description: as §3

Flt3(h) = target: T10, Flt3(h) (Homo sapiens, UniProt P36888); assay: as above; type: biochemical; settings: read-out: percentage inhibition Flt3(h)
T10 construct: purchased Upstate
T10 sequence (P36888 27-993): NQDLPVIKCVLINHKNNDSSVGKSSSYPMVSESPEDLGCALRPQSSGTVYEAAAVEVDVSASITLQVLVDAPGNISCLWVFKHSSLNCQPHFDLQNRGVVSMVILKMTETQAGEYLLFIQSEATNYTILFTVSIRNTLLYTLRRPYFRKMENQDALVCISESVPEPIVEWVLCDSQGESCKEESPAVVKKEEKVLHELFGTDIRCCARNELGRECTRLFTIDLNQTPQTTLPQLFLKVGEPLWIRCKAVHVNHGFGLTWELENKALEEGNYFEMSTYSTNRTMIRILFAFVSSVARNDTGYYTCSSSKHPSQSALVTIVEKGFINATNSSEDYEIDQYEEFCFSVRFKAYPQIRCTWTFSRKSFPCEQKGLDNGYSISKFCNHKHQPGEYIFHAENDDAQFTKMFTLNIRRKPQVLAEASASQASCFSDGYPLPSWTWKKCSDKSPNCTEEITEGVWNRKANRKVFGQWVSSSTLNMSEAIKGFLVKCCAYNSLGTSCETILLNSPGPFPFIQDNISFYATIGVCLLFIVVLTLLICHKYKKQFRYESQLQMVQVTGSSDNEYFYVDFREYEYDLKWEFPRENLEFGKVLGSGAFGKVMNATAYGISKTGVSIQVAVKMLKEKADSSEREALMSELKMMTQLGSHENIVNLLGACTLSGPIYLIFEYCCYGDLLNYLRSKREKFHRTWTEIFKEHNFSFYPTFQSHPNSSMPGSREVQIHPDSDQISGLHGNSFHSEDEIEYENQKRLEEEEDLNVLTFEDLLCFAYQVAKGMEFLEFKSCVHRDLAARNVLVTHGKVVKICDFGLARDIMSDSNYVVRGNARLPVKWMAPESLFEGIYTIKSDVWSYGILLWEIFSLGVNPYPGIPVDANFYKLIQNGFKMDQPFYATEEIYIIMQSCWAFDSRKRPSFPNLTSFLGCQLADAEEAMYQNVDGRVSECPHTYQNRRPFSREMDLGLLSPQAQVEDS
Description: as §3

IKKα(h) = target: T11, IKKα(h) (Homo sapiens, UniProt O15111); assay: as above; type: biochemical; settings: read-out: percentage inhibition IKKα(h)
T11 construct: purchased Upstate
T11 sequence (O15111 whole entry): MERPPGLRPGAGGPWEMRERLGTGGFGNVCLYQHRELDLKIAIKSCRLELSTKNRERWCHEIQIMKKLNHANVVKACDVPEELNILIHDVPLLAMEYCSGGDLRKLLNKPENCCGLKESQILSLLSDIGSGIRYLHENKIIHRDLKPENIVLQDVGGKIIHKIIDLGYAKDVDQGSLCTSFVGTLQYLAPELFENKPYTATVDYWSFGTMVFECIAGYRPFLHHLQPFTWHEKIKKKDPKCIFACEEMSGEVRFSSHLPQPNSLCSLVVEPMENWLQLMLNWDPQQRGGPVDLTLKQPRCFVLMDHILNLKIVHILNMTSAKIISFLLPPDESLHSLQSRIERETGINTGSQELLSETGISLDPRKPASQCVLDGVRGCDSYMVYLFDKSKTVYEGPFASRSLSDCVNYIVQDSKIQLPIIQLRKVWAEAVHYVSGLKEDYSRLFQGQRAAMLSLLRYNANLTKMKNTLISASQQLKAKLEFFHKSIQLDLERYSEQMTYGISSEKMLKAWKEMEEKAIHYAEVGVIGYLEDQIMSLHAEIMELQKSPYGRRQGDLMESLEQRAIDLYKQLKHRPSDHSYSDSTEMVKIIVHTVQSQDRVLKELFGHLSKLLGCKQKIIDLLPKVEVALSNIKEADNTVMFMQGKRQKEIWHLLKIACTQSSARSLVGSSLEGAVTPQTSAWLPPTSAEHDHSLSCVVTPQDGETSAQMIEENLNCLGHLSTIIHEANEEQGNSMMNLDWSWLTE
Description: as §3

Lck(h) = target: T12, Lck(h) (Homo sapiens, UniProt P06239); assay: as above; type: biochemical; settings: read-out: percentage inhibition Lck(h)
T12 construct: purchased Upstate
T12 sequence (P06239 whole entry): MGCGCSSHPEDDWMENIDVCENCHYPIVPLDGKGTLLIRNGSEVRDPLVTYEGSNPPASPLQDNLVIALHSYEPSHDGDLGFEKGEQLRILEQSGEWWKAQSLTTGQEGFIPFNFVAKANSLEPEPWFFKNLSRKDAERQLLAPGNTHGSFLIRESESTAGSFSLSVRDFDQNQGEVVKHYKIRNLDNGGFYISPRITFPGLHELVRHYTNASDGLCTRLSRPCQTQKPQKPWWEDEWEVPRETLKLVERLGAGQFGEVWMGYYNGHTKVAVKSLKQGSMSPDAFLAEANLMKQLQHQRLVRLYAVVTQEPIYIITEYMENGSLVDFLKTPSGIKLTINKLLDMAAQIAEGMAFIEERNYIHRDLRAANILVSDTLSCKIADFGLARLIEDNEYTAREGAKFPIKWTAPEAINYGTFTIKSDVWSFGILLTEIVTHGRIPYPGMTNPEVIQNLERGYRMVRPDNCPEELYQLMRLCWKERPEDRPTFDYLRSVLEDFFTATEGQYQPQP
Description: as §3

PKA(h) = target: T13, PKA(h) (Homo sapiens, UniProt P17612); assay: as above; type: biochemical; settings: read-out: percentage inhibition PKA(h)
T13 construct: purchased Upstate
Description: as §3

SAPK2p(h) = target: T14, SAPK2p(h) (Homo sapiens, UniProt Q15759); assay: as above; type: biochemical; settings: read-out: percentage inhibition SAPK2p(h)
T14 construct: purchased Upstate
T14 sequence (Q15759 whole entry): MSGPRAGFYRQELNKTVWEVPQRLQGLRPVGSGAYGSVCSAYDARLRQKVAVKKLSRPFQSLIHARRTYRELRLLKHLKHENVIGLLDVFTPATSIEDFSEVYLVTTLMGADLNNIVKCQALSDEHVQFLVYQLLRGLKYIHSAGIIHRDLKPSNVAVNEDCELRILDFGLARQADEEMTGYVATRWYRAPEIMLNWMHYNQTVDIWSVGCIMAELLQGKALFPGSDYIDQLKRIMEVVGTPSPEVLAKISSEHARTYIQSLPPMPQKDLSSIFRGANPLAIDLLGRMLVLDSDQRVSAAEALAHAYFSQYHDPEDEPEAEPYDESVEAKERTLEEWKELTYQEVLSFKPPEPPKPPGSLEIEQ
Description: as §3

IC50 [1]: < 5 nM
IC50 [2]: < 5 nM
IC50 [3]: < 5 nM
IC50 [4]: < 5 nM
IC50 [5]: < 5 nM
IC50 (FGFR3): 36 nM
GI50 (PDGFR-β): 3.8 nM
inhibition at 10 µM (Abl(m)): 98%
inhibition at 10 µM (Fes(h)): 97%
inhibition at 10 µM (Flt3(h)): 96%
inhibition at 10 µM (IKKα(h)): 98%
inhibition at 10 µM (Lck(h)): 100%
inhibition at 10 µM (PKA(h)): 92%
inhibition at 10 µM (SAPK2p(h)): 85%
Compound: CCN1CCN(Cc2ccc(NC(=O)c3ccc(C)c(NC(=O)N(C)c4ncnc5[nH]ccc45)c3)cc2C(F)(F)F)CC1 [Example 4, N-[4-(4-Ethyl-piperazin-1-ylmethyl)-3-trifluoromethyl-phenyl]-4-methyl-3-[3-methyl-3-(7H-pyrrolo[2,3-d]pyrimidin-4-yl)-ureido]-benzamide]
